Results taken from US8426587B2, “Haloallylamine inhibitors of SSAO/VAP-1 and uses therefor” (Pharmaxis Ltd., priority 2007, dated 2013).
Where a name gives a salt, the structure may show the parent alone. Read-outs that look alike come from different tables or passages of the source.

What was measured:
[1] = biological target: T1, Human SSAO/VAP-1 (Homo sapiens, UniProt Q16853); test: Inhibition of amine oxidase activity of purified human SSAO/VAP-1 (Amplex Red); format: biochemical; conditions: purified human SSAO, 30 min at 37° C. preincubation, 300 μM benzylamine
T1 sequence (Q16853 1-763): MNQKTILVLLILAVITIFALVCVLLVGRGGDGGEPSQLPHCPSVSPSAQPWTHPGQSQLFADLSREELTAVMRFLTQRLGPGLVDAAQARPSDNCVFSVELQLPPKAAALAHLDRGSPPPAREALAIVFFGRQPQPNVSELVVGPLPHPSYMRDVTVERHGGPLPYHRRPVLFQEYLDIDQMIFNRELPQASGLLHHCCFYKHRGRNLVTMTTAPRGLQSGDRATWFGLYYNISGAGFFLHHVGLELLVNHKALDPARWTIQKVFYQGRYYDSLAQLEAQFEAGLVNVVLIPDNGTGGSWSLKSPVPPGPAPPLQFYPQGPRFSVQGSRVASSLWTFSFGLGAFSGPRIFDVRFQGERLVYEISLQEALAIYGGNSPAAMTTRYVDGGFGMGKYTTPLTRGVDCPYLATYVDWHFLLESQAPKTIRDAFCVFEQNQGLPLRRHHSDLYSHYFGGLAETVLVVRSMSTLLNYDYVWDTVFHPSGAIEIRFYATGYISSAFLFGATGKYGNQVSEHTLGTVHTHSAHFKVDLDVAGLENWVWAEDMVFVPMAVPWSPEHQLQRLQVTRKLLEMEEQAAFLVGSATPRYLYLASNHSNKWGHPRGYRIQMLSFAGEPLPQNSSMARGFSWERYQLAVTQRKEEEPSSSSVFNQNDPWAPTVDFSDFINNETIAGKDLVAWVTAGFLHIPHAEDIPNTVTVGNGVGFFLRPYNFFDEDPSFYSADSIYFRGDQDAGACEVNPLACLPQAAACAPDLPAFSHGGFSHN
Description: (§1) To measure the SSAO activity, adipocyte homogenate (0.5 mg/mL) or adipocytes (adhering cells) containing 0.5 mM pargyline, or purified human SSAO was incubated in 0.1 M sodium phosphate buffer pH 7.4 with varying concentrations of test compounds for 30 min at 37° C. The homogenate was then incubated at 37° C. with 60 μM Amplex® Red, 0.75 U/mL HRP and 40 μM benzylamine (mouse SSAO) or 300 μM benzylamine (human SSAO) and the formation of resorufin was measured (excitation range 530-560 nm and emission at 590 nm) every 10 min in either a Tecan Infinite 200 or a BMG plate reader. The IC50 values were estimated using Graphpad Prism software. The IC50 is an estimation of the concentration of the test compound to inhibit the amine oxidase activity of SSAO/VAP-1 by 50%. The IC50 values of certain invention compounds are included in Table 1.

[2] = biological target: T2, Mouse SSAO/VAP-1 (Mus musculus, UniProt O70423); test: Inhibition of amine oxidase activity of mouse SSAO/VAP-1 (3T3-L1 adipocytes, Amplex Red); format: biochemical; conditions: 3T3-L1 adipocyte SSAO, 30 min at 37° C. preincubation, 40 μM benzylamine
T2 construct: Adipocytes were used as an SSAO source either as adherent cells or as a homogenate; endogenous in cells; host or cells: 3T3-L1 murine fibroblasts (ATCC) differentiated into adipocytes
T2 sequence (O70423 1-765): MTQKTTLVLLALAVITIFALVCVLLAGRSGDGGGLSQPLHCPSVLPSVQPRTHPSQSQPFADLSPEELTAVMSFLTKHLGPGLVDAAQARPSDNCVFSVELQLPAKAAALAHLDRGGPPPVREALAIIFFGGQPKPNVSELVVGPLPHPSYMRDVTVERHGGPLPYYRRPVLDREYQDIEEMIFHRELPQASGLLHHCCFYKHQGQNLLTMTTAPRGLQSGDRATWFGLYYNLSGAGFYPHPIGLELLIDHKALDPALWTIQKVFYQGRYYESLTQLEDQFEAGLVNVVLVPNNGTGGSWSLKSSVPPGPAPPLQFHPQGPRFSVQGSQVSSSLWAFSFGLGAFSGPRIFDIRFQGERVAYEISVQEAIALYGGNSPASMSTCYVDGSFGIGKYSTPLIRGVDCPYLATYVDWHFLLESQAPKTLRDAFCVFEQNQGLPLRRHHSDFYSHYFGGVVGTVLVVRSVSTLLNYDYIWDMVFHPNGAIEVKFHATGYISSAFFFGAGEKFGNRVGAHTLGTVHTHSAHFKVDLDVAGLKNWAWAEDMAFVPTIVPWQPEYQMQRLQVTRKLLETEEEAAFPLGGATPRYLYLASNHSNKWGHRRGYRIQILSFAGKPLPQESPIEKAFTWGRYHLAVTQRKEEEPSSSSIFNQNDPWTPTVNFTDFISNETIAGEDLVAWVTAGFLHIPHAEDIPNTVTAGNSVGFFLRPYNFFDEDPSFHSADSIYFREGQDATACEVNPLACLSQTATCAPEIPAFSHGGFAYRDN
Description: 3T3-L1 Murine fibroblasts were purchased from the American Type Culture Collection (ATCC, Rockville, Md.). Dulbecco's Modified Eagle Medium (DMEM) and fetal calf serum (FCS), antibiotics and Amplex® Red were obtained from Invitrogen (Carlsbad, Calif.). Tissue culture plastics and black clear-bottom 96 well plates were from BD Falcon (Bedford, Mass.). Bicinchoninic acid (BCA) reagent was from Pierce (Rockford, Ill.). All other materials were obtained from Sigma (St. Louis, Mo.).
3T3-L1 Fibroblasts were cultured in DMEM supplemented with 10% heat-inactivated FCS, 2 mM L-glutamine, 100 U/L penicillin and 100 μg/L streptomycin at 37° C. in 5% CO2. For differentiation into adipocytes, fibroblasts were cultured in DMEM with FCS for 1 or 2 days postconfluence, after which the cells were cultured for 3 days in DMEM containing 10% FCS, 350 nM insulin, 0.5 mM 3-isobutyl-1-methylxanthine, 250 nM dexamethasone, and 400 nM biotin and for 3 days in DMEM containing 10% FCS and 350 nM insulin. After differentiation, adipocytes were maintained in DMEM supplemented with 10% FCS. Adipocytes were used for experiments 8 to 11 days after the onset of differentiation, and the medium was renewed 2 or 3 days prior to each experiment. For culturing in black clear-bottom 96-well plates, cells were seeded at a 1:1 cell surface ratio, and differentiation was initiated 4 days postseeding. Cells were used between days 6-12 post-differentiation and between passages 7 and 20. Adipocytes were used as an SSAO source either as adherent cells or as a homogenate.
To prepare homogenate, 10 cm dishes of adipocytes were washed with HES buffer (20 mM HEPES, 1 mM EDTA, 250 mM sucrose, pH 7.4) and scraped in HES buffer containing 10 μg/mL leupeptin, 10 μM pepstatin and 1 mM PMSF. Cells were lysed by passage through a 23 G needle followed by passage through a 27 G needle. The lysate was spun at 500 g for 5 min and fat was removed. Protein concentration of the supernatant was measured using a BCA assay according to the manufacturer's instructions. The homogenate was stored at −80° C. until needed.
as §1

[3] = biological target: T3, Human MAO-B (Homo sapiens, UniProt P27338); test: Inhibition of recombinant MAO-B (Amplex Red); format: biochemical; conditions: 30 min at 37° C. preincubation, 50 μM benzylamine
T3 sequence (P27338 1-520): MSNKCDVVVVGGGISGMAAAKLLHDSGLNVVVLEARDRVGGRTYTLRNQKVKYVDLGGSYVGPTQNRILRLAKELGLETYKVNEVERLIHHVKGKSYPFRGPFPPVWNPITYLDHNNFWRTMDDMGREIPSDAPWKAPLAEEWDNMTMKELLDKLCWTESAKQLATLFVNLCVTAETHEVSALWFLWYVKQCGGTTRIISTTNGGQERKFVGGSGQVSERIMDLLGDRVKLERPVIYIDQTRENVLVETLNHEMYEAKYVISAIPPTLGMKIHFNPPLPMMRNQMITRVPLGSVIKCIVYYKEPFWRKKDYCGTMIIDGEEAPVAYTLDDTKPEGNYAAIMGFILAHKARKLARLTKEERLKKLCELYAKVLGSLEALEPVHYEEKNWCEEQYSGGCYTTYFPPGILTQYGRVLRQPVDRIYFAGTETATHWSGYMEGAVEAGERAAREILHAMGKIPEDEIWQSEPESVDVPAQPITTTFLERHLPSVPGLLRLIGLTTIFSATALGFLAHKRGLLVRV
Description: Recombinant MAO-B was incubated in 0.1 M sodium phosphate buffer pH 7.4 with varying concentration of test compounds for 30 min at 37° C. The homogenate/protein was then incubated at 37° C. with […] Amplex® Red, 0.75 U/ml HRP and 40 μM benzylamine (mouse SSAO), 300 μM benzylamine (human SSAO), 100 μM tyramine (MAO-A) or 50 μM benzylamine (MAO-B) and the formation of resorufin was measured (excitation range 530-560 nm and emission at 590 nm) every 5 min in either a Tecan Infinite 200 or a BMG Fluorostar Optima platereader. IC50 were estimated using Graphpad Prism software.

[4] = biological target: T4, SSAO/VAP-1 (Mus musculus, UniProt O70423); test: In vivo inhibition of SSAO/VAP-1 activity in mouse genital fat; design: species or system BALB/C mice; conditions: ip
T4 construct: the genital fat was excised and frozen; The tissue was homogenized; from tissue; host or cells: genital fat of BALB/C mice
T4 sequence (O70423 1-765): T2 sequence (O70423 1-765)
Description: In vivo inhibition was assessed in mouse genital fat, a tissue with high SSAO/VAP-1 expression. 10 BALB/C mice (5 males and 5 females) were administered 0 mg/kg, 10 mg/kg, 30 mg/kg or 100 mg/kg SSAO/VAP-1 inhibitor by intraperitoneal injection. Two hours after administration the mice were sacrificed and the genital fat was excised and frozen. The tissue was homogenized in 0.01 M sodium phosphate buffer pH 7.4 (10 mL/g) and used to measure SSAO activity using Amplex® Red. ED50 was estimated Using Graphpad Prism software.

[5] = female BALB/C mice, intraperitoneal, genital fat SSAO activity two hours after administration, read-out: Female Mice ED50 [ip]
[6] = male BALB/C mice, intraperitoneal, genital fat SSAO activity two hours after administration, read-out: Male Mice ED50 [ip]
[7] = read-out: Female Mice ED50 [ip]

| IC50 [1] | IC50 [2] | IC50 [3] | ED50 [4, 5] | ED50 [4, 6] | SMILES | ED50 [4, 7] | ED50 ([4]; read-out: Male Mice ED50 [ip]) |
| --- | --- | --- | --- | --- | --- | --- | --- |
| < 1000 nM | < 100000 nM | < 1000 nM |  |  | NC/C=C(/F)COc1cccc(C(F)(F)F)c1 [(E)-3-Fluoro-4-(3-(trifluoromethyl)phenoxy)but-2-en-1-amine hydrochloride] |  |  |
|  |  |  | < 150 mg/kg | < 150 mg/kg | CC(C)S(=O)(=O)c1ccc(OC/C(F)=C\CN)cc1.Cl [(E)-3-Fluoro-4-(4-(isopropylsulfonyl)phenoxy)but-2-en-1-amine hydrochloride] |  |  |
| < 1000 nM | < 10000 nM | < 10000 nM |  |  | NC/C=C(/F)COc1ccc(S(=O)(=O)N2CCOCC2)cc1 [(E)-3-Fluoro-4-(4-(morpholinosulfonyl)phenoxy)but-2-en-1-amine hydrochloride] |  |  |
| < 1000 nM | < 10000 nM | < 1000 nM |  |  | NC/C=C(/F)COc1ccc([N+](=O)[O-])cc1 [(E)-3-Fluoro-4-(4-nitrophenoxy)but-2-en-1-amine hydrochloride] |  |  |
| < 1000 nM | < 10000 nM | < 1000 nM |  |  | NC/C=C(/F)COc1ccccc1 [(E)-3-fluoro-4-phenoxybut-2-en-1-amine hydrochloride] |  |  |
| < 1000 nM | < 10000 nM | < 1000 nM |  |  | NC/C=C(/F)COc1ccc(Cl)cc1Cl [(E)-4-(2,4-Dichlorophenoxy)-3-fluorobut-2-en-1-amine hydrochloride] |  |  |
|  |  |  | < 300 mg/kg | < 50 mg/kg | Cl.NC/C=C(/F)COc1ccc(S(=O)(=O)Cc2ccccc2)cc1 [(E)-4-(4-(Benzylsulfonyl)phenoxy)-3-fluorobut-2-en-1-amine hydrochloride] |  |  |
| < 1000 nM | < 100000 nM | < 100000 nM |  |  | CC(C)N(C(=O)c1ccc(OC/C(F)=C\CN)cc1)C(C)C [(E)-4-(4-Amino-2-fluorobut-2-enyloxy)-N,N-diisopropylbenzamide hydrochloride] |  |  |
| < 1000 nM | < 1000 nM | < 1000 nM |  |  | NC/C=C(/F)COc1ccc(C(=O)NCc2ccccc2)cc1 [(E)-4-(4-Amino-2-fluorobut-2-enyloxy)-N-benzylbenzamide hydrochloride] |  |  |
|  |  |  | < 50 mg/kg | < 50 mg/kg | Cl.NC/C=C(/F)COc1ccc(C(=O)NC2CCCC2)cc1 [(E)-4-(4-Amino-2-fluorobut-2-enyloxy)-N-cyclopentylbenzamide hydrochloride] |  |  |
| < 10000 nM | < 1000 nM |  |  |  | NC/C=C(\Cl)Cc1cc(F)cc(F)c1 [(Z)-3-Chloro-4-(3,5-difluorophenyl)but-2-en-1-amine hydrochloride, reference compound] |  |  |
| < 10000 nM | < 10000 nM |  |  |  | NC/C=C(\Cl)CCc1ccccc1 [(Z)-3-Chloro-5-phenylpent-2-en-1-amine hydrochloride, reference compound] |  |  |
|  |  |  |  |  | C[C@@H](NC(=O)c1ccc(OC/C(F)=C\CN)cc1)c1ccccc1.Cl [R-(E)-4-(4-Amino-2-fluorobut-2-enyloxy)-N-(1-phenylethyl)benzamide hydrochloride] | < 150 mg/kg | < 50 mg/kg |
|  |  |  |  |  | C[C@H](NC(=O)c1ccc(OC/C(F)=C\CN)cc1)c1ccccc1.Cl [S-(E)-4-(4-Amino-2-fluorobut-2-enyloxy)-N-(1-phenylethyl)benzamide hydrochloride] | < 50 mg/kg | < 50 mg/kg |
